Laboratory results taken from US20160052936A1, “SPIROINDOLINE DERIVATIVES FOR USE AS GONADOTROPIN-RELEASING HORMONE RECEPTOR ANTAGONISTS” (BAYER PHARMA AKTIENGESELLSCHAFT, priority 2013, published 2016).

Assays:
[1] = target: T1, human GnRHR (Homo sapiens, UniProt P30968); experiment: Tag-Lite receptor binding assay; settings: Hek293 cells transiently transfected with human GnRHR; displacement of green-labelled GnRHR binding peptide; read-out: Potency in receptor binding assay using TAG-LITE technology, given as IC50
T1 construct: own knowledge: Tag-lite cells usually carry an N-terminal SNAP-tag fusion; host or cells: Hek293 cells, transiently transfected, supplied frozen
T1 sequence (P30968 1-328): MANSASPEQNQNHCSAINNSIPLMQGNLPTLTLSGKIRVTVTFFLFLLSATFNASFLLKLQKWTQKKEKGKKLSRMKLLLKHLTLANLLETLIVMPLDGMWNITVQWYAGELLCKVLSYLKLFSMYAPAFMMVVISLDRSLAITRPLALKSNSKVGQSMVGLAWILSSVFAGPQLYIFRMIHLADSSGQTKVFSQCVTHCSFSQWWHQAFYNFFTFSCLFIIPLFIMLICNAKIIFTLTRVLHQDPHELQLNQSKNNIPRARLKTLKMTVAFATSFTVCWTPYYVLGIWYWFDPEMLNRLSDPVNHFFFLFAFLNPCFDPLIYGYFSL
Source text: 2.2. Tag-Lite® Receptor Binding Assay
This binding assay is based on the fluorescence resonance energy transfer between fluorescence donor labelled human GnRHR and a green-labelled GnRHR binding peptide. Compounds interfering with the ligand binding side of the human GnRHR will replace the labelled peptide resulting in a signal decrease. The assay principle was established by Cisbio Bioassays (Bagnols-sur-Cèze Cedex, France) and further details are available on their homepage.
The assay procedure was further optimized for use in-house with reduced assay volumes. Frozen Hek293 cells, transiently transfected with human GnRHR and Terbium-labelling of the receptor, were supplied by Cisbio Bioassays as well as Tag-Lite buffer and green-labelled GnRHR binding peptide. Cells were thawed and transferred to cold Tag-Lite buffer. A volume of 8 μl of this cell suspension were added to 100 nl of a 160-fold concentrated solution of the test compound in DMSO pre-dispensed in a well of a white low-volume 384-well microtiter plate (Greiner Bio-One, Frickenhausen, Germany). The mixture was incubated for 5 min at room temperature. In the next step either 4 μl Tag-Lite buffer or as control 4 μl of an exceeding amount unlabelled binding peptide in Tag-Lite buffer were transferred to the mixture. The green-labelled GnRHR binding peptide was added in a final step at EC50 in a volume of 4 μl Tag-Lite buffer. After an incubation of 1 h at room temperature plates were measured in a microplate reader, e.g. a PHERAstar (BMG Labtechnologies, Offenburg, Germany) by using a specific optic module.
A ratio from the fluorescence emissions at 520 nm (green fluorescence) and at 490 nm (background signal of Terbium-labelled GnRHR) was calculated and the data were normalized (reaction without test compound=0% inhibition of binding of green-labelled peptide; reaction without test compound with exceeding amount unlabelled binding peptide=100% inhibition of binding of green-labelled peptide). On the same microtiter plate, compounds were tested at 10 different concentrations in the range of 12.5 μM to 0.64 nM (12.5 μM, 4.2 μM, 1.4 μM, 0.46 μM, 0.15 μM, 51 nM, 17 nM, 5.7 nM, 1.9 nM and 0.64 nM; dilution series prepared before the assay at the level of the 160-fold conc. stock solutions by serial 1:3 dilutions in 100% DMSO) in duplicate values for each concentration. By using an in-house software, the IC50 values were calculated by a 4 parameter fit.

[2] = target: T2, human GnRH receptor (Homo sapiens, UniProt P30968); experiment: IP-One HTRF assay with buserelin stimulation; type: cell-based; settings: CHO cells stably expressing human GnRH receptor; buserelin at EC80; read-out: Potency in IP-One HTRF assay with buserelin (at EC80) stimulation, given as IC50
T2 construct: host or cells: CHO cells stably expressing human GnRH receptor (line established by Prof. Thomas Gudermann)
T2 sequence (P30968 1-328): T1 sequence (P30968 1-328)
Source text: By using homogenous time-resolved fluorescence resonance energy transfer (HTRF), the generation of one component of the GnRH-R signalling cascade can be measured. After stimulation of CHO cells stably expressing human GnRH receptor (established by Prof. Thomas Gudermann, currently University of Marburg, Germany; supplied as frozen cell aliquots by Cell Culture Services, Hamburg, Germany) with the EC80 of the GnRH agonist buserelin, Gq protein-coupled receptor signalling cascade is activated resulting in PLC-dependent cleavage of PIP2 to Inositol-1,4,5-triphosphate (IP3) and Diacylglycerol. The second messenger IP3 is degraded intracellularly to myo-inositol. Inhibition of the final degradation step from Inositol-1-phosphate (IP1) to myo-inositol by addition of lithium chloride leads to accumulation of IP1 in the cells. In cell lysates, IP1 can be detected via an antibody-based HTRF detection technology, where IP1 can displace the FRET acceptor IP1-d2 from binding by Terbium-labelled anti-IP1 antibody as donor resulting in a signal decrease. Compounds were tested for their capability of inhibiting GnRH-R activation by buserelin. For all IP-One HTRF® assays reagents of Cisbio Bioassays (IP-One Tb Jumbo kit, #62IPAPEJ; Cisbio Bioassays, Bagnols sur Cèze Cedex, France) were used.
For the assay, frozen cell aliquots were thawed and a cell suspension (3.33×10^6 cells/mL) containing IP1-d2 (dilution 1:40) was prepared and incubated at 37° C. After 1 h 3 μl of the cell suspension were added to 50 nl of a 100-fold concentrated solution of the test compound in DMSO pre-dispensed in a well of a white low-volume 384-well microtiter plate (Greiner Bio-One, Frickenhausen, Germany). […] Plates were incubated for 1 h at 37° C. and 5% carbon dioxide before the cells were lysed by adding 3 μl Terbium-labelled anti-IP1 antibody (1:40) diluted in Conjugate & Lysis buffer as supplied with the kit. After an incubation for 1 h at 22° C. to enable complete cell lysis and antibody binding to free IP1 or IP1-d2, plates were measured in an HTRF reader, e.g. a RUBYstar, PHERAstar (both BMG Labtechnologies, Offenburg, Germany) or a Viewlux (PerkinElmer LAS, Rodgau-Jügesheim, Germany).
From the fluorescence emissions at 665 nm (FRET) and at 620 nm (background signal of Terbium-antibody), the ratio (emission at 665 nm divided by emission at 620 nm) was calculated and the data were normalized (reaction without test compound=0% inhibition; all other assay components except agonist=100% inhibition). On the same microtiter plate, compounds were tested at 10 different concentrations in the range of 20 μM to 1 nM (20 μM, 6.7 μM, 2.2 μM, 0.74 μM, 0.25 μM, 82 nM, 27 nM, 9.2 nM, 3.1 nM and 1 nM; dilution series prepared before the assay at the level of the 100-fold conc. stock solutions by serial 1:3 dilutions in 100% DMSO) in duplicate values for each concentration. By using an in-house software, the IC50 values were calculated by a 4 parameter fit.
Within the meaning of the present invention the antagonist activity is reflected by the ability of a compound of the invention to antagonize human GnRH receptor stimulation in IP-One HTRF® assay at least three times the standard deviation over the background level.

[3] = In vivo pharmacokinetics in rats; settings: Wistar, rat, plasma, po, male rats, 2 mg/kg p.o.
Method: 2.4 In Vivo Pharmacokinetics in Rats
For in vivo pharmacokinetic experiments test compounds were administered to male Wistar rats intravenously at a dose of 0.5 mg/kg and intragastral at a dose of 2 mg/kg formulated as solutions using solubilizers such as PEG400 or Solutol in well-tolerated amounts.
For pharmacokinetics after intravenous administration test compounds were given as i.v. bolus and blood samples were taken at 2 min, 8 min, 15 min, 30 min, 45 min, 1 h, 2 h, 4 h, 7 h and 24 h after dosing. […] For pharmacokinetics after intragastral administration test compounds were given intragastral to fasted rats and blood samples were taken at 8 min, 15 min, 30 min, 45 min, 1 h, 2 h, 4 h, 7 h and 24 h after dosing. […] Blood was collected into Lithium-Heparintubes (Monovetten®, Sarstedt) and centrifuged for 15 min at 3000 rpm. An aliquot of 100 μL from the supernatant (plasma) was taken and precipitated by addition of 400 μL cold acetonitril and frozen at −20° C. over night. Samples were subsequently thawed and centrifuged at 3000 rpm, 4° C. for 20 minutes. Aliquots of the supernatants were taken for analytical testing using an Agilent 1200 HPLC-system with LCMS/MS detection. PK parameters were calculated by non-compartmental analysis using a PK calculation software.
PK parameters derived from concentration-time profiles after i.v.: CLplasma: Total plasma clearance of test compound (in L/kg/h); CLblood: Total blood clearance of test compound: CLplasma*Cp/Cb (in L/kg/h) with Cp/Cb being the ratio of concentrations in plasma and blood. PK parameters calculated from concentration time profiles after i.g.: Cmax: Maximal plasma concentration (in mg/L); Cmaxnorm: Cmax divided by the administered dose (in kg/L); Tmax: Time point at which Cmax was observed (in h). Parameters calculated from both, i.v. and i.g. concentration-time profiles: AUCnorm: Area under the concentration-time curve from t=0 h to infinity (extrapolated) divided by the administered dose (in kg*h/L); AUC(0−tlast)norm: Area under the concentration-time curve from t=0 h to the last time point for which plasma concentrations could be measured divided by the administered dose (in kg*h/L); t½: terminal half-life (in h); F: oral bioavailability: AUCnorm after intragastral administration divided by AUCnorm after intravenous administration (in %).

Row | Compound | IC50 [1] [µM] | IC50 [2] [µM] | half-life [3] [h] | bioavailability ([3]; AUCnorm intragastral / AUCnorm i.v. (0.5 mg/kg), read-out: F (oral bioavailability)) [%]
1 | O=C(NCc1ncc(C(F)(F)F)cc1Cl)c1ccc2c(c1)C1(CCS(=O)(=O)CC1)C(C1CC1)N2S(=O)(=O)c1cccc(OC(F)F)c1 (racemic) [Example 14, N-{[3-chloro-5-(trifluoromethyl)pyridin-2-yl]methyl}-2-cyclopropyl-1-{[3-(difluoromethoxy)phenyl]sulfonyl}-1,2,2′,3′,5′,6′-hexahydrospiro[indole-3,4′-thiopyran]-5-carboxamide 1′,1′-dioxide] | 0.0787 | 0.082 | – | –
2 | N#Cc1ccc(S(=O)(=O)N2c3ccc(C(=O)NCc4ncc(C(F)(F)F)cc4Cl)cc3C3(CCS(=O)(=O)CC3)C2C2CC2)cc1 (racemic) [Example 8, N-{[3-chloro-5-(trifluoromethyl)pyridin-2-yl]methyl}-1-[(4-cyanophenyl)sulfonyl]-2-cyclopropyl-1,2,2′,3′,5′,6′-hexahydrospiro[indole-3,4′-thiopyran]-5-carboxamide 1′,1′-dioxide] | 0.0217 | 0.022 | – | –
3 | O=C(NCc1ncc(C(F)(F)F)cc1Cl)c1ccc2c(c1)C1(CCS(=O)(=O)CC1)C(C1CC1)N2S(=O)(=O)c1ccc(F)cc1 (racemic) [Example 3, N-{[3-chloro-5-(trifluoromethyl)pyridin-2-yl]methyl}-2-cyclopropyl-1-[(4-fluorophenyl)sulfonyl]-1,2,2′,3′,5′,6′-hexahydrospiro[indole-3,4′-thiopyran]-5-carboxamide 1′,1′-dioxide] | – | 0.053 | – | –
4 | N#Cc1ccc(S(=O)(=O)N2c3ccc(C(=O)NCc4ncc(C(F)(F)F)cc4Cl)cc3C3(CCS(=O)(=O)CC3)[C@@H]2C2CC2)cc1 (single isomer, unassigned) [Example 8.1] | – | 0.01 | 5 | 17
5 | O=C(NCc1ncc(C(F)(F)F)cc1F)c1ccc2c(c1)C1(CCS(=O)(=O)CC1)C(C1CC1)N2S(=O)(=O)c1ccc(F)cc1 (racemic) [Example 1, 2-cyclopropyl-1-[(4-fluorophenyl)sulfonyl]-N-{[3-fluoro-5-(trifluoromethyl)pyridin-2-yl]methyl}-1,2,2′,3′,5′,6′-hexahydrospiro[indole-3,4′-thiopyran]-5-carboxamide 1′,1′-dioxide] | – | 0.42 | – | –
6 | N#Cc1cccc(S(=O)(=O)N2c3ccc(C(=O)NCc4ncc(C(F)(F)F)cc4Cl)cc3C3(CCS(=O)(=O)CC3)C2C2CC2)c1 (racemic) [Example 10, N-{[3-chloro-5-(trifluoromethyl)pyridin-2-yl]methyl}-1-[(3-cyanophenyl)sulfonyl]-2-cyclopropyl-1,2,2′,3′,5′,6′-hexahydrospiro[indole-3,4′-thiopyran]-5-carboxamide 1′,1′-dioxide] | – | 0.029 | – | –
7 | O=C(NCc1ncc(C(F)(F)F)cc1Cl)c1ccc2c(c1)C1(CCS(=O)(=O)CC1)C(C1CC1)N2S(=O)(=O)c1ccc(OC(F)F)cc1 (single isomer, unassigned) [Example 16.2] | – | 0.879 | – | –
8 | NC(=O)c1ccc(S(=O)(=O)N2c3ccc(C(=O)NCc4ncc(C(F)(F)F)cc4Cl)cc3C3(CCS(=O)(=O)CC3)C2C2CC2)cc1 (single isomer, unassigned) [Example 17.1] | – | > 20 | – | –
9 | N#Cc1cccc(S(=O)(=O)N2c3ccc(C(=O)NCc4ncc(C(F)(F)F)cc4Cl)cc3C3(CCS(=O)(=O)CC3)[C@H]2C2CC2)c1 (single isomer, unassigned) [Example 10.2] | – | 1.97 | – | –
